PubChem BioAssay AID330 (DTP/NCI, 2004)
“And” between values parts separate entries of the source, which are not always exact repeats. Identical values can stand only once. Inconclusive results and toxic doses are left out.

System: P388 leukemia ip, CD2F1 mice, survival T/C
Assay: NCI In Vivo Anticancer Drug Screen. Data for tumor model P388 Leukemia (intraperitoneal) in CD2F1 (CDF1) mice
Settings: endpoint: median survival time, higher = longer survival
In short: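 Mice carrying the transplanted tumor received test compound or vehicle. Survival was recorded in each group, and the value is the treated-group measurement divided by that of the vehicle-treated control group.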

[1] = dose: 50.0 mg/kg/injection, schedule: Q01DX005 (ip), vehicle: saline
[2] = dose: 100.0 mg/kg/injection, schedule: Q01DX005 (ip), vehicle: saline
[3] = dose: 200.0 mg/kg/injection, schedule: Q01DX005 (ip), vehicle: saline
[4] = dose: 50.0 mg/kg/injection, schedule: Q01DX009 (ip), vehicle: Klucel (hydroxypropylcellulose) (HPC)
[5] = dose: 100.0 mg/kg/injection, schedule: Q01DX009 (ip), vehicle: Klucel (hydroxypropylcellulose) (HPC)

For `CCCC/C=C(\C)C(O)C(C)/C=C(\C)CCC(O)C(C)C(O)C(C)C(O)C(C)C1OC(C(C)C(=O)O)CCC1C` (centres undefined), the T/C (dose: 1.5 mg/kg/injection, schedule: Q01DX005 (ip), vehicle: Klucel (hydroxypropylcellulose) (HPC)) was 103 % of control and 105 % of control, the T/C (dose: 3.0 mg/kg/injection, schedule: Q01DX005 (ip), vehicle: Klucel (hydroxypropylcellulose) (HPC)) was 99 % of control and 108 % of control and the T/C (dose: 6.0 mg/kg/injection, schedule: Q01DX005 (ip), vehicle: Klucel (hydroxypropylcellulose) (HPC)) was 102 % of control and 109 % of control. The T/C (dose: 12.0 mg/kg/injection, schedule: Q01DX005 (ip), vehicle: Klucel (hydroxypropylcellulose) (HPC)) was 99 % of control and 100 % of control.
With `CC(C)c1cc(N(C)C)cc(=S)[nH]1` the T/C [1] was 104 % of control, the T/C [2] was 94 % of control and the T/C [3] was 102 % of control.
With `CN1CCCCC1CC(O)c1ccccc1` (centres undefined) the T/C (dose: 12.5 mg/kg/injection, schedule: Q01DX005 (ip), vehicle: Klucel (hydroxypropylcellulose) (HPC)) was 103 % of control, the T/C (dose: 25.0 mg/kg/injection, schedule: Q01DX005 (ip), vehicle: Klucel (hydroxypropylcellulose) (HPC)) was 105 % of control and the T/C (dose: 50.0 mg/kg/injection, schedule: Q01DX005 (ip), vehicle: Klucel (hydroxypropylcellulose) (HPC)) was 100 % of control.
With `NC(N)=NC(=O)c1ccccc1` the T/C [1] was 100 % of control, the T/C [2] was 100 % of control and the T/C [3] was 100 % of control.
For `[N-]=[N+]=Nc1cccc(Nc2c3ccccc3nc3ccccc23)c1`, the T/C [4] was 98 % of control, the T/C [5] was 100 % of control and the T/C (dose: 200.0 mg/kg/injection, schedule: Q01DX009 (ip), vehicle: Klucel (hydroxypropylcellulose) (HPC)) was 107 % of control.
`CCCCCCN(CCCCCC)P(=O)(N1CC1C)N1CC1C` (centres undefined) was tested, and the T/C (dose: 12.5 mg/kg/injection, schedule: Q01DX009 (ip), vehicle: saline with Tween-80) was 122 % of control, the T/C (dose: 12.5 mg/kg/injection, schedule: Q04DX003 (ip), vehicle: saline) was 95 % of control and the T/C (dose: 25.0 mg/kg/injection, schedule: Q01DX009 (ip), vehicle: saline with Tween-80) was 118 % of control. For the same molecule, the T/C (dose: 25.0 mg/kg/injection, schedule: Q04DX003 (ip), vehicle: saline) was 95 % of control and the T/C (dose: 50.0 mg/kg/injection, schedule: Q04DX003 (ip), vehicle: saline) was 95 % of control.
For `Cc1nc2c([N+](=O)[O-])c(N(C)C)c([N+](=O)[O-])cc2[nH]1`, the T/C (dose: 25.0 mg/kg/injection, schedule: Q04DX003 (ip), vehicle: saline with Tween-80) was 96 % of control and the T/C (dose: 50.0 mg/kg/injection, schedule: Q04DX003 (ip), vehicle: saline with Tween-80) was 87 % of control.
For `Nc1nc(=S)c2ncn(C3OC(COC(=O)c4ccccc4)C(OC(=O)c4ccccc4)C3OC(=O)c3ccccc3)c2[nH]1` (centres undefined), the T/C (dose: 4.4 mg/kg/injection, schedule: Q01DX009 (ip), vehicle: saline with Tween-80) was 109 % of control, the T/C (dose: 6.6 mg/kg/injection, schedule: Q01DX009 (ip), vehicle: saline with Tween-80) was 113 % of control and the T/C (dose: 10.0 mg/kg/injection, schedule: Q01DX009 (ip), vehicle: saline with Tween-80) was 122 % of control. The T/C (dose: 44.0 mg/kg/injection, schedule: Q04DX003 (ip), vehicle: saline with Tween-80) was 108 % of control, the T/C (dose: 50.0 mg/kg/injection, schedule: Q01DX009 (ip), vehicle: saline with Tween-80) was 170 % of control and the T/C (dose: 66.0 mg/kg/injection, schedule: Q04DX003 (ip), vehicle: saline with Tween-80) was 116 % of control. For the same molecule, the T/C (dose: 100.0 mg/kg/injection, schedule: Q01DX009 (ip), vehicle: saline with Tween-80) was 90 % of control.
For `C=CCN1c2c(nc(N)[nH]c2=O)NCC1CNc1ccc(C(=O)NC(CCC(=O)O)C(=O)O)cc1` (centres undefined), the T/C (dose: 50.0 mg/kg/injection, schedule: Q04DX003 (ip), vehicle: alkali diluted with saline) was 113 % of control, the T/C (dose: 100.0 mg/kg/injection, schedule: Q04DX003 (ip), vehicle: alkali diluted with saline) was 95 % of control and the T/C (dose: 200.0 mg/kg/injection, schedule: Q04DX003 (ip), vehicle: alkali diluted with saline) was 111 % of control.
`CCC(=O)OC1CCC2C3CCC(=O)OC3C(C)(CCC(=O)O)CC12C` (centres undefined) was tested, and the T/C (dose: 50.0 mg/kg/injection, schedule: Q01DX005 (ip), vehicle: saline with Tween-80) was 93 % of control, the T/C (dose: 100.0 mg/kg/injection, schedule: Q01DX005 (ip), vehicle: saline with Tween-80) was 99 % of control and the T/C (dose: 200.0 mg/kg/injection, schedule: Q01DX005 (ip), vehicle: saline with Tween-80) was 90 % of control.
With `COc1ccc(C(=O)C(CN(C)C)CN(C)C)c(OC)c1` the T/C (dose: 7.5 mg/kg/injection, schedule: Q01DX005 (ip), vehicle: saline) was 121 % of control and the T/C (dose: 15.0 mg/kg/injection, schedule: Q01DX005 (ip), vehicle: saline) was 108 % of control.
In the case of `O=C(O)CC1Sc2nc3c(n2C1(O)c1ccccc1)-c1ccccc1CC3` (centres undefined), the T/C (dose: 25.0 mg/kg/injection, schedule: Q01DX009 (ip), vehicle: Klucel (hydroxypropylcellulose) (HPC)) is reported as 111 % of control, the T/C [4] is reported as 98 % of control and the T/C [5] is reported as 100 % of control.
In the case of `COc1cccc2c1C(=O)c1c(O)c3c(c(O)c1C2=O)C[C@@](O)(C(=O)CO)C[C@@H]3OC1CC(N(C)C)C(O)C(C)O1` (some centres undefined), the T/C (dose: 0.06 mg/kg/injection, schedule: Q01DX009 (ip), vehicle: water) is reported as 108 % of control, the T/C (dose: 0.13 mg/kg/injection, schedule: Q01DX009 (ip), vehicle: water) is reported as 119 % of control and the T/C (dose: 0.19 mg/kg/injection, schedule: Q04DX003 (ip), vehicle: water) is reported as 104 % of control. For the same molecule, the T/C (dose: 0.25 mg/kg/injection, schedule: Q01DX009 (ip), vehicle: water) was 150 % of control, the T/C (dose: 0.38 mg/kg/injection, schedule: Q04DX003 (ip), vehicle: water) was 100 % of control and the T/C (dose: 0.5 mg/kg/injection, schedule: Q01DX009 (ip), vehicle: water) was 160 % of control and 164 % of control. For the same molecule, the T/C (dose: 0.75 mg/kg/injection, schedule: Q04DX003 (ip), vehicle: water) was 104 % of control, the T/C (dose: 0.86 mg/kg/injection, schedule: Q04DX003 (ip), vehicle: water) was 154 % of control and the T/C (dose: 1.44 mg/kg/injection, schedule: Q04DX003 (ip), vehicle: water) was 163 % of control. The T/C (dose: 1.5 mg/kg/injection, schedule: Q04DX003 (ip), vehicle: water) was 106 % of control, the T/C (dose: 2.0 mg/kg/injection, schedule: Q01DX009 (ip), vehicle: water) was 101 % of control and the T/C (dose: 2.4 mg/kg/injection, schedule: Q04DX003 (ip), vehicle: water) was 175 % of control. The T/C (dose: 2.5 mg/kg/injection, schedule: Q01DX001 (ip), vehicle: water) was 153 % of control, the T/C (dose: 3.0 mg/kg/injection, schedule: Q04DX003 (ip), vehicle: water) was 113 % of control and the T/C (dose: 4.0 mg/kg/injection, schedule: Q04DX003 (ip), vehicle: water) was 117 % of control. For the same molecule, the T/C (dose: 5.0 mg/kg/injection, schedule: Q01DX001 (ip), vehicle: water) was 153 % of control, the T/C (dose: 6.0 mg/kg/injection, schedule: Q04DX003 (ip), vehicle: water) was 123 % of control and the T/C (dose: 6.67 mg/kg/injection, schedule: Q04DX003 (ip), vehicle: water) was 97 % of control.
`C=C1C(C2(C)C=CC(=O)OC3(C)COC(=O)CC32)C(OC=O)C(OC(=O)C(O)C(C)CC)C2(C)C(c3ccoc3)CC(OC(C)=O)C12O` (centres undefined) was tested, and the T/C (dose: 5.0 mg/kg/injection, schedule: Q01DX005 (ip), vehicle: Klucel (hydroxypropylcellulose) (HPC)) was 96 % of control, the T/C (dose: 10.0 mg/kg/injection, schedule: Q01DX005 (ip), vehicle: Klucel (hydroxypropylcellulose) (HPC)) was 98 % of control and 96 % of control and the T/C (dose: 20.0 mg/kg/injection, schedule: Q01DX005 (ip), vehicle: Klucel (hydroxypropylcellulose) (HPC)) was 91 % of control and 95 % of control. The T/C (dose: 40.0 mg/kg/injection, schedule: Q01DX005 (ip), vehicle: Klucel (hydroxypropylcellulose) (HPC)) was 95 % of control and 96 % of control, the T/C (dose: 80.0 mg/kg/injection, schedule: Q01DX005 (ip), vehicle: Klucel (hydroxypropylcellulose) (HPC)) was 102 % of control and the T/C (dose: 160.0 mg/kg/injection, schedule: Q01DX005 (ip), vehicle: Klucel (hydroxypropylcellulose) (HPC)) was 87 % of control.
In the case of `CC1(C)Oc2c(C=O)c(O)cc3c2C2CC1CCC2(C)O3` (centres undefined), the T/C (dose: 9.0 mg/kg/injection, schedule: Q01DX009 (ip), vehicle: saline with Tween-80) is reported as 102 % of control, the T/C (dose: 18.0 mg/kg/injection, schedule: Q01DX009 (ip), vehicle: saline with Tween-80) is reported as 96 % of control and the T/C (dose: 36.0 mg/kg/injection, schedule: Q01DX009 (ip), vehicle: saline with Tween-80) is reported as 102 % of control.
`Nc1nnc2nc(CC(=O)c3ccc4ccccc4c3)c(=O)[nH]n12` was tested, and the T/C (dose: 60.0 mg/kg/injection, schedule: Q01DX005 (ip), vehicle: saline) was 95 % of control, the T/C (dose: 120.0 mg/kg/injection, schedule: Q01DX005 (ip), vehicle: saline) was 100 % of control and the T/C (dose: 240.0 mg/kg/injection, schedule: Q01DX005 (ip), vehicle: saline) was 103 % of control.
`OCCC1CCN(CC/C=C2/c3ccc(F)cc3Sc3ccc(C(F)(F)F)cc32)CC1` was tested, and the T/C (dose: 25.0 micrograms/kg/injection, schedule: Q01DX001 (ip), vehicle: saline) was 99 % of control, the T/C (dose: 50.0 micrograms/kg/injection, schedule: Q01DX001 (ip), vehicle: saline) was 114 % of control and 96 % of control and the T/C (dose: 100.0 micrograms/kg/injection, schedule: Q01DX001 (ip), vehicle: saline) was 117 % of control.
